How the values were obtained:
Type in all cases: in vivo
[1] = system: Phytophthora infestans (PHYTIN); conditions: 1DP, tomato (rutgers), sprayed to runoff, rate 200 ppm
[2] = system: Septoria tritici SEPTTR; test: Curative low volume test, wheat leaf blotch; conditions: curative 3 days, low volume 300 L/ha
Description: Tomatoes and grapes were grown in a soil-less peat-based potting mixture (Metro-Mix 360) while wheat was propagated in a 50/50 mix of mineral soil and Metro-Mix 360.
The malonomicin sample (Compound I) used in the low volume foliar spray was prepared by dissolving the material in deionized water with the desired adjuvant concentration. (0.05 percent Spraymate X-77+0.05 percent PVA+0.1 percent ammonium sulfate+0.1 percent EDTA)
For low volume applications, compound was applied to plants at the spray volume of 300 L/ha using a track sprayer with an SS8003E spray nozzle and a spray pressure of 255 kPa with a boom height of 40 cm from test plants. For a control, the same mixture is sprayed without active ingredient (solvent control).
Curative tests (DC) were inoculated the designated day(s) prior to treatment application. Disease severity was assessed as the percentage of the total surface area of the sprayed leaves covered by disease. Percent disease control relative to the solvent control was then calculated. Phytotoxicity symptoms and severity, if present, were also recorded. Four replicate plants per treatment for low volume applications were used.
Wheat plants were inoculated using approximately 1×10^7 spores/mL. Distilled water was poured into inoculum plates and the spores were dislodged using a spatula. The spores and water were filtered through 2 layers of cheesecloth, and three drops of Tween 20 per 100 mL of solution were added as a wetter. Test plants were then placed in a walk-in dew room at 22° C., 99 percent RH for 24 hours, after which time the plants were sub-irrigated with Hoagland's solution for 30 minutes and then moved into a misting greenhouse system where they were lightly misted every 90 seconds for three days. When the three-day misting period was completed, the plants were moved to the dry area of the greenhouse and bottom-watered daily until disease was fully expressed on the solvent control (10-14 days in summer, 14-21 days in winter). During the fall and winter months, the addition of a cart hood was used post-dew room, until assessment, in order to enhance disease uniformity and expression.

[3] = system: Venturia inaequalis (VENTIN); test: Apple Scab one day protectant (1DP); conditions: 0.1 percent Spraymate X77 + 0.1 percent ammonium sulfate

NC[C@@H]1NC(=O)C(C(=O)CC(NC(=O)[C@@H](N)CO)(C(=O)O)C(=O)O)=C1O [Compound I, {[(2S)-2-amino-3-hydroxypropanoyl]amino}{2-[(5S)-5-(aminomethyl)-4-hydroxy-2-oxo-2,5-dihydro-1H-pyrrol-3-yl]-2-oxoethyl}malonic acid]
PHYTIN percent control of plant disease [1]: ++ (++ = 75-100 percent control of plant disease)
SEPTTR 3DC percent disease control ([2]; 7.8 g ai/ha): ++ (++ = 75-100 percent control)
SEPTTR 3DC percent disease control ([2]; 15.6 g ai/ha): ++ (++ = 75-100 percent control)
SEPTTR 3DC percent disease control ([2]; 31.2 g ai/ha): ++ (++ = 75-100 percent control)
SEPTTR 3DC percent disease control ([2]; 62.5 g ai/ha): ++ (++ = 75-100 percent control)
SEPTTR 3DC percent disease control ([2]; 125 g ai/ha): ++ (++ = 75-100 percent control)
SEPTTR 3DC percent disease control ([2]; 250 g ai/ha): ++ (++ = 75-100 percent control)
VENTIN percent control of plant disease ([3]; 50 ppm): ++ (++ = 75-100 percent control of plant disease)
VENTIN percent control of plant disease ([3]; 100 ppm): ++ (++ = 75-100 percent control of plant disease)
VENTIN percent control of plant disease ([3]; rate 200 ppm): + (+ = 30-74 percent control of plant disease)

From patent US20070173539A1, “Use of malonomicin and analogs in fungicidal applications” (priority 2006, published 2007)
